Measured values from patent US7928128B2, “Use of(R)-(−) -2-[5-(4-fluorophenyl)-3-pyridylmethylaminomethyl]-chromane and its physiologically acceptable salts” (Merck Patent Gesellschaft mit beschrankter Haftung, priority 2000, dated 2011).

How the values were obtained:
[1] = test system: rats; assay: Catalepsy induction in rats (extrapyramidal motor side effects); type: in vivo, rat; conditions: doses up to 500 fold higher compared to the doses effective in the animal models
Protocol: (§1) Extrapyramidal motor side effects in e.g. rodents are measured by the ability of a drug to induce catalepsy. Catalepsy is defined as a state where an animal continues to remain in an unnormal (nonphysiological 'uncomfortable') posture for a long time ([…] and S. D. Glick, Neuropharmacology, 1996; 15: 393-394; […] P. Janssen, Life Sci., 1979, […]). For example, if a hindpaw of a rat is placed on an elevated level, e.g. a platform elevated 3 cm above ground level, a normal rat immediately withdraws the hindpaw from the platform to the ground level. A cataleptic rat remains in this unnatural posture even for minutes.

[2] = molecular target: T1, 5-HT1A receptor (Homo sapiens, UniProt P08908); conditions: in contrast to buspirone
T1 sequence (P08908 whole entry): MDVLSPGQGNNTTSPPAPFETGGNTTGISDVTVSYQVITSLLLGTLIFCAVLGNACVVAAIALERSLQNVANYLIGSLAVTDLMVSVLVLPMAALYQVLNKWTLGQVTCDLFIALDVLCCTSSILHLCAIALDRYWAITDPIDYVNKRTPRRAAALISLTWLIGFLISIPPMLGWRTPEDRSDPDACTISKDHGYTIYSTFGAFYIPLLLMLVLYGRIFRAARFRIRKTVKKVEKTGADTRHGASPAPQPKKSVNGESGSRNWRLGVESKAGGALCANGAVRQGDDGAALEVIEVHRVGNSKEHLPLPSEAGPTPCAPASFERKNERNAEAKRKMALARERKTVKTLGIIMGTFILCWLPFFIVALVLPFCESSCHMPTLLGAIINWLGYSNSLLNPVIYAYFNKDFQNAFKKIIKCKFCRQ

[3] = test system: systemic 3-nitropropionic acid (3-NP) model in rats; assay: Systemic 3-nitropropionic acid (3-NP) model in rats, nocturnal activity; type: in vivo, rat
Description: A typical animal model is the systemic 3-nitropropionic acid (3-NP) model in rats according to C.
After two injections of 3-NP, rats display nocturnal hyperactivity reflecting symptoms of early Huntington's disease, whereas rats treated with four injections of 3-NP display nocturnal akinesia (hypoactivity) reflecting symptoms of late Huntington's disease. Nocturnal activity is automatically measured in conventional activity cages by infrared beams.

[4] = test system: Parkinsonian cynomolgus monkey; assay: MPTP Parkinsonian cynomolgus monkey chronically treated with I-dopa (adverse effects of anti-Parkinsonian drugs); type: in vivo; conditions: MPTP monkeys, long-term I-dopa
Protocol: Treatment of adverse effects of conventional anti-Parkinsonian drugs as defined above are determined in a modification of the animal model of the Parkinsonian cynomolgus monkey according to P. J. Blanchet et al., Exp. Neurology 1998; 153: 214-222. Monkeys render parkinsonian by repeated injections of 1-methyl-4-phenyl-1,2,3,6-tetrahydropyridine (MPTP). The Parkinsonian monkeys are chronically treated with the standard I-dopa therapy according to P. J. Blanchet et al., Mov. Disord., 1998; 13: 798-802. Longterm treatment with I-dopa induces extrapyramidal motor side effects and psychotic states which are both qualitatively and quantitatively, assessed by the Abnormal Involuntary Movement Scale (P. J. Blanchet et al., Mov. Disord. 1998; 13: 798-802) for different body parts (face, neck, trunk, each limb) and by rating for psychotic states by observing the monkey's attention, reactivity and mobility.

[5] = test system: Parkinsonian cynomolgus monkey; assay: MPTP Parkinsonian cynomolgus monkey, Laval University Disability Scale; type: in vivo; conditions: MPTP monkeys
Description: A typical animal model for idiopathic Parkinson's disease is the Parkinsonian cynomolgus monkey according to P. J. Blanchet et al., Exp. Neurology 1998; 153: 214-222. Monkeys render parkinsonian by repeated injections of 1-methyl-4-phenyl-1,2,3,6-tetrahydropyridine (MPTP). Parkinsonian symptoms are qualitatively assessed by the use of the Laval University Disability Scale (B. Gomez-Mancilla et al., 1993; Mov. Disord. 8: 144-150) measuring the following symptoms: posture, mobility, climbing, gait, holding food, vocalizing, grooming, social interaction.

[6] = test system: Campus Syndrome in the Pietrain pig; assay: Campus Syndrome in the Pietrain pig (tremor); type: in vivo; conditions: accelerometric recording
Description: (§2) Typical genetic models in mutant animals are the Campus Syndrome in the Pietrain pig according to A. Richter et al. (Exp. Neurology, 1995; 134: 205-213) or the Weaver mutant mouse according to J. R. Simon and B. Ghetti (Mol. Neurobiol., 1994; 9: 183-189). In the Campus Syndrome model, these mutant pigs show a high-frequency tremor when standing and during locomotion, but not while lying at rest. Assessment of tremor is made by accelerometric recording. In the Weaver mutant mouse, degenerative cerebellar atrophy is fould in association with tremor, gait instability, and toppling over the sides after a few steps.

[7] = test system: oxotremorine-induced tremor; assay: Oxotremorine-induced tremor; type: in vivo; conditions: rating scale
Protocol: A typical animal model for drug-induced tremors is the oxotremorine-induced tremor (e.g. H. Hallberg and O. Almgren, Acta Physiol. Scand., 1987; 129: 407-13; J. G. Clement and W. R. Dyck, J. Pharmacol. Meth., 1989; 22: 25-36). Oxotremorine induces tremor which is measured by a rating scale. (R)-(−)-2-[5-(4-fluoro-phenyl)-3-pyridyl-methyl-amino-methyl]-chromane or one of its pharmaceutically acceptable salt inhibited oxotremorine-induced tremors.

[8] = molecular target: dopamine D3 receptor (Homo sapiens, UniProt P35462)
Sequence of dopamine D3 receptor (P35462 whole entry, species assumed): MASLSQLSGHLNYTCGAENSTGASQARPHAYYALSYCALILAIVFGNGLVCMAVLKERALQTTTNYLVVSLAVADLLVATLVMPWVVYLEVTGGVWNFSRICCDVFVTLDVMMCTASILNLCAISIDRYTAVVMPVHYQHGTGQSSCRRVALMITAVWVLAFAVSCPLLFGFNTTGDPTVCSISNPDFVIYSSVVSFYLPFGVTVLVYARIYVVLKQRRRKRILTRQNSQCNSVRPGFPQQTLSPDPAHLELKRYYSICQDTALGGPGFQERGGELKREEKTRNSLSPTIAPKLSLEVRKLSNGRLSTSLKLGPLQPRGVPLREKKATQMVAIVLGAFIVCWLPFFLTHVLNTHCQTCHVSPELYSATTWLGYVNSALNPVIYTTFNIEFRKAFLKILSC

[9] = test system: Weaver mutant mouse; assay: Weaver mutant mouse (locomotor activity); type: in vivo; conditions: activity cages
Description: as §2

[10] = test system: reserpinized rat or mouse; assay: Reserpinized rat or mouse (akinesia); type: in vivo; conditions: 24 h after reserpine
Protocol: A typical animal model is the reserpinized rat or mouse (e.g. […]. Neural Transm.-Park. Dis. Dement. Sect., 1994; 7: 133-142; M. Gossel et al., J. Neural Transm.-Park. Dis. Dement. Sect., 1995; 10: 27-39; N. R. Hughes et al., Mov. Disord., 1998; 13: 228-233). Reserpine is a potent depleter of monoamines and produces nearly complete akinesia in both species. Prominent 24 h after application, the distance traveled and the time active is nearly zero as measured in conventional activity meters.

[11] = molecular target: D2 (Homo sapiens, UniProt P14416); assay: D2 antagonism; conditions: under increased doses
Sequence of D2 (P14416 whole entry): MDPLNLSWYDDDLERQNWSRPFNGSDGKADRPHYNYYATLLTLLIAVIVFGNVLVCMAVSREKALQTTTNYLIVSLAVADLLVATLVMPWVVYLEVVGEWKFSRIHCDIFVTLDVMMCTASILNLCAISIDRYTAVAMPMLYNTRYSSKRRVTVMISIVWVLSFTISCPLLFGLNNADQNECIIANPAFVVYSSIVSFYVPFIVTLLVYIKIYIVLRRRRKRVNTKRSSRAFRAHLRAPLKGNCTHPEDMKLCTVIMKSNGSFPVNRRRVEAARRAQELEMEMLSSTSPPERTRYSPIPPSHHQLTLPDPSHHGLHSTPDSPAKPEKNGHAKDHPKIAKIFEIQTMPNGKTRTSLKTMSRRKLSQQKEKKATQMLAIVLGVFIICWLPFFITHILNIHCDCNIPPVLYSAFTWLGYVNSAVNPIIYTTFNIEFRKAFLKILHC

[12] = test system: striatonigral degeneration approach in the rat; assay: Striatonigral degeneration in the rat (6-hydroxydopamine plus quinolinic acid), turning behavior; type: in vivo; conditions: automated recorder
Description: Another more recent animal model is the striatonigral degeneration approach in the rat according to […] et al., J. Neural Transm. Suppl., 1999; 55: 103-113. Rats receive an unilateral injection of 6-hydroxydopamine into the left medial forebrain bundle followed by an injection of quinolinic acid into the ipsilateral striatum inducing nigrostriatal degeneration. The degeneration results in turning behavior to a challenge with dopaminomimetics such as apomorphine or amphetamine. Turning behavior is measured by an automated recorder.

[13] = test system: mutant dystonic hamster; assay: Mutant dystonic hamster; type: in vivo; conditions: scoring system
Description: A typical animal model is the mutant dystonic hamster according to A. Richter and W. Löscher, Prog. Neurobiol. 1998; 54: 633-677. In this genetically dystonic hamsters, dystonic attacks are provoked by taking the animal from the home cage and placing it on a balance. The dystonic syndrome consists of a sequence of abnormal movements, and the severity of the single symptoms is rated by a scoring system.

[14] = molecular target: T1, 5-HT1A receptor; assay: biochemical
[15] = test system: neuroleptics sensitized monkey; assay: Neuroleptics sensitized monkey, haloperidol challenge; type: in vivo; conditions: given after haloperidol challenge; scoring system
Description: Another typical animal model is the neuroleptics sensitized monkey according to D. E. Casey, Psychopharmacology, 1996; 124: 134-140. Monkeys treated repeatedly with conventional neuroleptics are highly sensitive to a subsequent challenge dose of neuroleptic drugs. When challenged, the monkeys immediately show extrapyramidal motor side effects such as dystonia, dyskinesias, akathisia, and bradykinesia which are rated by a scoring system. The conventional neuroleptic drug haloperidol is given as a challenge.

[16] = test system: catalepsy induced by conventional antidopaminergic drugs such as haloperidol; assay: Catalepsy induced by conventional antidopaminergic drugs such as haloperidol; type: in vivo; conditions: same dose-range as effective in the animal models
Protocol: as §1

[17] = test system: neuroleptics-induced muscle rigidity in rats; assay: Neuroleptics-induced muscle rigidity in rats; type: in vivo, rat; conditions: resistance to passive flexion and extension of the hind limb
Description: A typical animal model is neuroleptics-induced muscle rigidity in rats according to S. Wolfarth et al., Arch. Pharmacol. 1992; 345: 209-212. Rats are challenged with the conventional neuroleptic drug haloperidol which enhances muscle tone. Muscle tone is electromechanically measured as the resistance to passive flexion and extension of the hind limb.

[18] = test system: posthypoxic myoclonus, rats; assay: Posthypoxic myoclonus in rats; type: in vivo, rat; conditions: after cardiac arrest for 8 minutes
Protocol: A typical animal model for myoclonus is myoclonus induced by an acute hypoxic episode according to D. D. Truong et al., Mov. Disord., 1994; 9: 201-206). In this model of posthypoxic myoclonus, rats undergo a cardiac arrest for 8 minutes and are resuscitated thereafter. Myoclonic jerks occur spontaneously but can be provoked by auditory stimulation, too, worsening over the days following cardiac arrest.

[19] = Abnormal Involuntary Movement Scale

**Q.** For `Fc1ccc(-c2cncc(CNC[C@H]3CCc4ccccc4O3)c2)cc1` [(R)-(−)-2-[5-(4-fluorophenyl)-3-pyridylmethylaminomethyl]-chromane], which induction of catalepsy [1] is on record?
**A.** The induction of catalepsy was “does not induce any catalepsy”.

**Q.** What about the “potency as agonist at the 5-HT1A receptor relative to buspirone” value [2] of the same molecule?
**A.** The value was 30 fold.

**Q.** And the “nocturnal akinesia (hypoactivity)” value ([3]; after four injections of 3-NP (late Huntington's disease))?
**A.** The value was “reduced”.

**Q.** And the nocturnal hyperactivity ([3]; after two injections of 3-NP (early Huntington's disease))?
**A.** Its nocturnal hyperactivity is “reduced”.

**Q.** And the dystonic dyskinesias [4, 19]?
**A.** Its dystonic dyskinesias is “reduced”.

**Q.** And the overall choreiform dyskinesias [4, 19]?
**A.** The overall choreiform dyskinesias was “reduced”.

**Q.** What about the psychotic states ([4]; rating of attention, reactivity and mobility) of the same molecule?
**A.** The psychotic states was “reduced”.

**Q.** And the “parkinsonian symptoms (Laval University Disability Scale)” value [5]?
**A.** Its value is “reduced all the parkinsonian symptoms”.

**Q.** What about the total activity [5] of the same molecule?
**A.** The total activity was “increased”.

**Q.** And the “tremor when standing and during locomotion” value [6]?
**A.** The value was “reduced disabling tremor”.

**Q.** And the oxotremorine-induced tremors [7]?
**A.** The oxotremorine-induced tremors was “inhibited”.

**Q.** And the “affinity to the dopamine D3 receptor” value [8]?
**A.** Its value is “high affinity”.

**Q.** And the locomotor activity [9]?
**A.** Its locomotor activity is “enhanced”.

**Q.** And the akinesia [10]?
**A.** Its akinesia is “dose-dependently reduced”.

**Q.** And the “distance traveled and time active” value ([10]; activity meters)?
**A.** The value was “restored distance traveled and time active to about the level of normal animals”.

**Q.** What about the D2 antagonism [11] of the same molecule?
**A.** Its D2 antagonism is “exhibit a D2 antagonism under increased doses”.

**Q.** And the “turning behavior induced by amphetamine” value [12]?
**A.** Its value is “dose-dependently antagonized”.

**Q.** And the “turning behavior induced by apomorphine” value [12]?
**A.** Its value is “dose-dependently antagonized”.

**Q.** And the “severity of dystonic symptoms” value [13]?
**A.** The value was “dose-dependently reduced”.

**Q.** What about the IC50 [14] of the same molecule?
**A.** Its IC50 is 1 nM.

**Q.** What about the “extrapyramidal motor side effects (dystonia, dyskinesias, akathisia, bradykinesia)” value [15] of the same molecule?
**A.** The value was “dose-dependently reduced”.

**Q.** What about the “prevention of catalepsy induced by conventional antidopaminergic drugs” value [16] of the same molecule?
**A.** Its value is “able to prevent catalepsy”.

**Q.** And the “reversal of already existing catalepsy induced by conventional antidopaminergic drugs such as haloperidol” value [16]?
**A.** Its value is “reverses already existing catalepsy”.

**Q.** What about the “muscle tone enhanced by haloperidol” value [17] of the same molecule?
**A.** Its value is “decreased”.

**Q.** What about the “number of auditory-evoked myoclonic jerks” value [18] of the same molecule?
**A.** The value was “dose-dependently reduced”.

**Q.** What about the “number of spontaneous myoclonic jerks” value [18] of the same molecule?
**A.** The value was “dose-dependently reduced”.
